# Results from patent US20100267561A1, “HERBICIDAL PYRIDAZINONE DERIVATIVES” (priority 2007, published 2010).
# How the values were obtained:
# Format in all cases: in vivo
# [1] = test system: downy bromegrass (Bromus tectorum); experiment: Test C pre-/postemergence plant response; settings: Preemergence
# From the text: (§1) Seeds of plant species selected from annual bluegrass (Poa annua), blackgrass (Alopecurus myosuroides), canola (Brassica rapa), downy bromegrass (Bromus tectorum), green foxtail (Setaria viridis), Italian ryegrass (Lolium multiflorum), canarygrass (Phalaris minor), pigweed (Amaranthus retroflexus), spring barley (Hordeum vulgare), spring wheat (Triticum aestivum), wild mustard (Sinapis arvensis), wild oat (Avena fatua), windgrass (Apera spica-venti), winter barley (Hordeum vulgare), and winter wheat (Triticum aestivum) were planted and treated preemergence with test chemicals formulated in a non-phytotoxic solvent mixture which included a surfactant. At the same time, plants selected from these crop and weed species were treated with postemergence applications of some of the test chemicals formulated in the same manner. Plants ranged in height from 2 to 18 cm (1- to 4-leaf stage) for postemergence treatments.
# (§2) Treated plants and controls were maintained in a controlled growth environment for 15 to 25 days after which time all species were compared to controls and visually evaluated. Plant response ratings, summarized in Table C, are based on a scale of 0 to 100 where 0 is no effect and 100 is complete control. A dash (-) response means no test result.
# [2] = test system: wild mustard (Sinapis arvensis); experiment: Test C pre-/postemergence plant response; settings: Preemergence
# From the text: as §1, §2
# [3] = test system: windgrass (Apera spica-venti); experiment: Test C pre-/postemergence plant response; settings: Preemergence
# From the text: as §1, §2
# [4] = test system: spring wheat (Triticum aestivum); experiment: Test C pre-/postemergence plant response; settings: Preemergence
# From the text: as §1, §2
# [5] = test system: annual bluegrass (Poa annua); experiment: Test C pre-/postemergence plant response; settings: Preemergence
# From the text: as §1, §2
# [6] = test system: pigweed (Amaranthus retroflexus); experiment: Test C pre-/postemergence plant response; settings: Preemergence
# From the text: as §1, §2
# [7] = test system: canarygrass (Phalaris minor); experiment: Test C pre-/postemergence plant response; settings: Preemergence
# From the text: as §1, §2
# wild oat (Avena fatua) = experiment: Test C pre-/postemergence plant response; settings: Preemergence
# From the text: as §1, §2
# [8] = test system: green foxtail (Setaria viridis); experiment: Test C pre-/postemergence plant response; settings: Preemergence
# From the text: as §1, §2
# [9] = test system: winter wheat (Triticum aestivum); experiment: Test C pre-/postemergence plant response; settings: Preemergence
# From the text: as §1, §2
# [10] = test system: blackgrass (Alopecurus myosuroides); experiment: Test C pre-/postemergence plant response; settings: Preemergence
# From the text: as §1, §2
# [11] = test system: Italian ryegrass (Lolium multiflorum); experiment: Test C pre-/postemergence plant response; settings: Preemergence
# From the text: as §1, §2
# [12] = test system: spring barley (Hordeum vulgare); experiment: Test C pre-/postemergence plant response; settings: Preemergence
# From the text: as §1, §2
# [13] = test system: barnyardgrass (Echinochloa crus-galli); experiment: Test B flooded paddy test plant response
# How it was run: (§3)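 Compounds were added directly to paddy water over 2-leaf-stage plants in pots flooded 3 cm above soil, water depth maintained. Visual injury scored against controls after 13 to 15 days in greenhouse, 0 (none) to 100 (complete control); dash indicates no result.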
# [14] = test system: ducksalad (Heteranthera limosa); experiment: Test B flooded paddy test plant response
# How it was run: as §3
# [15] = test system: umbrella sedge (Cyperus difformis); experiment: Test B flooded paddy test plant response
# How it was run: as §3
# [16] = 8 g ai/ha, scale 0 to 100 (0 no effect, 100 complete control)
# [17] = 16 g ai/ha, scale 0 to 100 (0 no effect, 100 complete control)
# [18] = 31 g ai/ha, scale 0 to 100 (0 no effect, 100 complete control)
# [19] = 62 g ai/ha, scale 0 to 100, 0 no effect, 100 complete control
# [20] = Flood (flooded paddy test), 62 g ai/ha, scale 0 to 100, 0 no effect, 100 complete control
# [21] = Flood (flooded paddy test), 125 g ai/ha, scale 0 to 100, 0 no effect, 100 complete control
# [22] = Flood (flooded paddy test), 250 g ai/ha, scale 0 to 100, 0 no effect, 100 complete control
# [23] = Flood, 31 g ai/ha, scale 0 to 100
smiles,measurement,setting,value
CCc1cc(-c2ccc(Cl)cc2)nn1-c1c(O)cnn(C)c1=O [Compound 21],"Plant response rating, Bromegrass, Downy",[1]; [16],0
same,"Plant response rating, Bromegrass, Downy",[1]; [17],40
same,"Plant response rating, Bromegrass, Downy",[1]; [18],75
same,"Plant response rating, Bromegrass, Downy",[1]; [19],95
same,"Plant response rating, Mustard, Wild",[2]; [16],0
same,"Plant response rating, Mustard, Wild",[2]; [17],0
same,"Plant response rating, Mustard, Wild",[2]; [18],0
same,"Plant response rating, Mustard, Wild",[2]; [19],0
same,"Plant response rating, Windgrass",[3]; [16],100
same,"Plant response rating, Windgrass",[3]; [17],100
same,"Plant response rating, Windgrass",[3]; [18],100
same,"Plant response rating, Windgrass",[3]; [19],100
same,"Plant response rating, Wheat, Spring",[4]; [16],30
same,"Plant response rating, Wheat, Spring",[4]; [17],40
same,"Plant response rating, Wheat, Spring",[4]; [18],60
same,"Plant response rating, Wheat, Spring",[4]; [19],90
same,"Plant response rating, Bluegrass",[5]; [16],0
same,"Plant response rating, Bluegrass",[5]; [17],0
same,"Plant response rating, Pigweed",[6]; [16],0
same,"Plant response rating, Pigweed",[6]; [17],0
same,"Plant response rating, Pigweed",[6]; [18],0
same,"Plant response rating, Pigweed",[6]; [19],0
same,"Plant response rating, Canarygrass",[7]; [16],65
same,"Plant response rating, Canarygrass",[7]; [17],75
same,"Plant response rating, Canarygrass",[7]; [18],90
same,"Plant response rating, Canarygrass",[7]; [19],100
same,"Plant response rating, Oat, Wild",wild oat (Avena fatua); [16],65
same,"Plant response rating, Oat, Wild",wild oat (Avena fatua); [17],75
same,"Plant response rating, Oat, Wild",wild oat (Avena fatua); [18],95
same,"Plant response rating, Oat, Wild",wild oat (Avena fatua); [19],100
same,"Plant response rating, Foxtail, Green",[8]; [16],50
same,"Plant response rating, Foxtail, Green",[8]; [17],100
same,"Plant response rating, Foxtail, Green",[8]; [18],100
same,"Plant response rating, Foxtail, Green",[8]; [19],100
same,"Plant response rating, Wheat, Winter",[9]; [16],0
same,"Plant response rating, Wheat, Winter",[9]; [17],50
same,"Plant response rating, Wheat, Winter",[9]; [18],60
same,"Plant response rating, Wheat, Winter",[9]; [19],95
same,"Plant response rating, Blackgrass",[10]; [16],95
same,"Plant response rating, Blackgrass",[10]; [17],98
same,"Plant response rating, Blackgrass",[10]; [18],100
same,"Plant response rating, Blackgrass",[10]; [19],100
same,"Plant response rating, Ryegrass, Italian",[11]; [16],98
same,"Plant response rating, Ryegrass, Italian",[11]; [17],100
same,"Plant response rating, Ryegrass, Italian",[11]; [18],100
same,"Plant response rating, Ryegrass, Italian",[11]; [19],100
same,"Plant response rating, Barley, Spring",[12]; [16],20
same,"Plant response rating, Barley, Spring",[12]; [17],35
same,"Plant response rating, Barley, Spring",[12]; [18],60
same,"Plant response rating, Barley, Spring",[12]; [19],75
same,"Plant response rating, Barnyardgrass",[13]; [20],75
same,"Plant response rating, Barnyardgrass",[13]; [21],80
same,"Plant response rating, Barnyardgrass",[13]; [22],100
same,"Plant response rating, Barnyardgrass",[13]; [23],55
same,"Plant response rating, Ducksalad",[14]; [20],0
same,"Plant response rating, Ducksalad",[14]; [21],0
same,"Plant response rating, Ducksalad",[14]; [22],65
same,"Plant response rating, Ducksalad",[14]; [23],0
same,"Plant response rating, Sedge, Umbrella",[15]; [20],0
same,"Plant response rating, Sedge, Umbrella",[15]; [21],0
same,"Plant response rating, Sedge, Umbrella",[15]; [22],30
same,"Plant response rating, Sedge, Umbrella",[15]; [23],0
Cc1cc(-c2ccc(Cl)cc2)nn1-c1c(OC(=O)c2cccc(Cl)c2)cnn(C)c1=O [Compound 32],"Plant response rating, Bromegrass, Downy",[1]; [16],0
same,"Plant response rating, Bromegrass, Downy",[1]; [17],20
same,"Plant response rating, Bromegrass, Downy",[1]; [18],20
same,"Plant response rating, Bromegrass, Downy",[1]; [19],60
same,"Plant response rating, Mustard, Wild",[2]; [16],0
same,"Plant response rating, Mustard, Wild",[2]; [17],0
same,"Plant response rating, Mustard, Wild",[2]; [18],0
same,"Plant response rating, Windgrass",[3]; [16],0
same,"Plant response rating, Windgrass",[3]; [17],0
same,"Plant response rating, Windgrass",[3]; [18],0
same,"Plant response rating, Windgrass",[3]; [19],75
same,"Plant response rating, Wheat, Spring",[4]; [16],0
same,"Plant response rating, Wheat, Spring",[4]; [17],25
same,"Plant response rating, Wheat, Spring",[4]; [18],60
same,"Plant response rating, Wheat, Spring",[4]; [19],98
same,"Plant response rating, Bluegrass",[5]; [16],0
same,"Plant response rating, Bluegrass",[5]; [17],0
same,"Plant response rating, Bluegrass",[5]; [18],0
same,"Plant response rating, Bluegrass",[5]; [19],20
same,"Plant response rating, Pigweed",[6]; [16],0
same,"Plant response rating, Pigweed",[6]; [17],0
same,"Plant response rating, Pigweed",[6]; [18],0
same,"Plant response rating, Pigweed",[6]; [19],0
same,"Plant response rating, Canarygrass",[7]; [16],0
same,"Plant response rating, Canarygrass",[7]; [17],0
same,"Plant response rating, Canarygrass",[7]; [18],75
same,"Plant response rating, Canarygrass",[7]; [19],90
same,"Plant response rating, Oat, Wild",wild oat (Avena fatua); [16],0
same,"Plant response rating, Oat, Wild",wild oat (Avena fatua); [17],10
same,"Plant response rating, Oat, Wild",wild oat (Avena fatua); [18],65
same,"Plant response rating, Oat, Wild",wild oat (Avena fatua); [19],70
same,"Plant response rating, Foxtail, Green",[8]; [16],40
same,"Plant response rating, Foxtail, Green",[8]; [17],75
same,"Plant response rating, Foxtail, Green",[8]; [18],100
same,"Plant response rating, Foxtail, Green",[8]; [19],100
same,"Plant response rating, Wheat, Winter",[9]; [16],0
same,"Plant response rating, Wheat, Winter",[9]; [17],20
same,"Plant response rating, Wheat, Winter",[9]; [18],35
same,"Plant response rating, Wheat, Winter",[9]; [19],65
same,"Plant response rating, Blackgrass",[10]; [18],75
same,"Plant response rating, Blackgrass",[10]; [19],98
same,"Plant response rating, Ryegrass, Italian",[11]; [16],0
same,"Plant response rating, Ryegrass, Italian",[11]; [17],20
same,"Plant response rating, Ryegrass, Italian",[11]; [19],75
same,"Plant response rating, Barley, Spring",[12]; [16],0
same,"Plant response rating, Barley, Spring",[12]; [17],0
same,"Plant response rating, Barley, Spring",[12]; [18],25
same,"Plant response rating, Barley, Spring",[12]; [19],75
same,"Plant response rating, Barnyardgrass",[13]; [20],20
same,"Plant response rating, Barnyardgrass",[13]; [21],65
same,"Plant response rating, Barnyardgrass",[13]; [22],70
same,"Plant response rating, Barnyardgrass",[13]; [23],10
same,"Plant response rating, Ducksalad",[14]; [20],30
same,"Plant response rating, Ducksalad",[14]; [21],40
same,"Plant response rating, Ducksalad",[14]; [22],40
same,"Plant response rating, Ducksalad",[14]; [23],30
same,"Plant response rating, Sedge, Umbrella",[15]; [20],30
same,"Plant response rating, Sedge, Umbrella",[15]; [21],30
same,"Plant response rating, Sedge, Umbrella",[15]; [22],30
same,"Plant response rating, Sedge, Umbrella",[15]; [23],20
